We go through one molecule from patent US8058258B2, “Methods for cancer therapy and stem cell modulation” (Agency for Science, Technology and Research, priority 2006, dated 2011).

Test [1] relates to SW480 cells. In words: Cell death by PI staining and flow cytometry. As to conditions: colorectal cancer SW480 cells, 5 μM. The format is cell-based. The protocol: (§1) FIG. 3A depicts the detection of cell death of a variety of cancer cells upon exposure to 3-deazaneplanocin (DZNep) compared to untreated controls cells (DMSO=dimethyl sulfoxide). Breast cancer MCF-7 and MB-468 cells, colorectal HCT116, RKO and SW480 cells were treated with 5 μm 3-deazaneplanocin for 48 and 72 h, and cell death was detected by means of propodium iodide (PI) staining and flow cytometry analysis. Shown is the average of three independent experiments.
(§2) Cell lines used in these examples were purchased from the American Type Culture Collection (Manassas, Va.). Cells were maintained in DMEM supplemented with 10% fetal bovine serum with glutamine, penicillin, and streptomycin. For drug treatment, cells were seeded the day before the drug treatment. Cells were treated with 5 μM 3-Deazaneplanocin A or 2 μM 5-aza-2′-deoxycytidine (5-AzaC; Sigma) for 72 hours and trichostatin A (TSA; Sigma) at 100 nM for 24 hours. For co-treatment of cells with 5-AzaC and TSA, 5-Aza was added for 48 hours and followed by TSA for 24 hours.
(§3) Cells were trypsinised and washed with PBS and fixed in 70% ethanol and processed for propidium iodide staining and FACS analysis. For the caspase 3 activity assay and mitochondrial membrane potential detection, cells were stained with anti-active caspase 3 and JC-1, respectively, according to the manufacturer's instructions (BD Bioscience).
(§4) It was observed that 3-deazaneplanocin at 5 μM could induce 25% cell death at 48 hours and 45% of cell death at 72 hours, as determined by propodium iodide (PI) staining and flow cytometry analysis (FIG. 3A).
A general note: A flow cytometer gives signals particle by particle.

Test [2] has as its system HCT116 cells. The experiment in a line: Cell death by PI staining and flow cytometry. The format is cell-based. As to conditions: colorectal cancer HCT116 cells, 5 μM. The protocol: as §1, §2, §3, §4
Test [3] concerns RKO cells. In words: Cell death by PI staining and flow cytometry. As to conditions: colorectal cancer RKO cells, 5 μM. The format is cell-based. On the procedure:
as §1, §2, §3, §4

Test [4] relates to histone acetylation. In words: Western blot of histone acetylation. In kind it is cell-based, human. Conditions: HCT116 or MCF-7 cells, 5 μM, 48 and 72 hours. On the procedure: (§5) Cell lines used in these examples were purchased from the American Type Culture Collection (Manassas, Va.). Cells were maintained in DMEM supplemented with 10% fetal bovine serum with glutamine, penicillin, and streptomycin. For drug treatment, cells were seeded the day before the drug treatment. Cells were treated with 5 μM 3-Deazaneplanocin A or 2 μM 5-aza-2'-deoxycytidine (5-AzaC; Sigma) for 72 hours and trichostatin A (TSA; Sigma) at 100 nM for 24 hours. For co-treatment of cells with 5-AzaC and TSA, 5-Aza was added for 48 hours and followed by TSA for 24 hours. Cell pellets were first lysed in RadioImmuno Precipitation Assay (RIPA) buffer, consisting of an aqueous solution of 25 mM Tris-HCl pH 7.6, 150 mM NaCl, 1% Nonidet-P 40 (NP-40), 1% sodium deoxycholate and 0.1% sodium dodecylsulfate (SDS), before further sonicated using a tissue homogeniser to release all the proteins. Equal amounts of protein were separated on SDS-polyacrylamide gels and transferred to polyvinylidene difluoride (PVDF) membranes. The blots were probed with antibodies against: EED (07-368), SUZ12 (07-379), SUV39H1 (07-550), BMI1 (05-637), tri-methylated H3-K27 (07-449), tri-methylated H3-K9 (07-442) and Acetyl-Histone H3 (06-599), and were purchased from Upstate. EZH2 (AC22) and Histone H3 (3H1) were from Cell Signaling. […]
Background: In western blotting, separated proteins are transferred to a membrane and probed.

The subject of test [5] is mRNA of EZH2, SUZ12 and EED. In words: RT-PCR of mRNA levels of PRC2 proteins. The format is cell-based. Conditions: HCT116 cells, after 3-deazaneplanocin treatment. On the procedure:
FIG. 1B depicts the analysis of the mRNA levels of the PRC2 proteins EZH2, SUZ12, and EED by reverse transcription (RT-PCR) before (-) and after (+)3-deazaneplanocin treatment. HCT116 cells were treated as in (a) and total RNA was isolated for RT-PCR analysis GAPDH served as a control. […] Accordingly, trimethylation of histone 3 at […] In contrast, histone H3 methylation at […] (H3-K9) was not affected by 3-deazaneplanocin treatment.

For test [6], the system named is caspase 3 in HCT116 cells. In words: Caspase 3 activity by flow cytometry. The format is cell-based. The source says: FIG. 3D depicts the detection of activation the protease caspase 3 potential in HCT116 cells by 3-deazaneplanocin (DZNep, right hand side), which occurs during apoptosis. Cells were trypsinised and washed with PBS and fixed in 70% ethanol and processed for propidium iodide staining and FACS analysis. For the caspase 3 activity assay and mitochondrial membrane potential detection, cells were stained with anti-active caspase 3 and JC-1, respectively, according to the manufacturer's instructions (BD Bioscience).

The test system of test [7] is MB-231 cells. In words: Apoptotic response time course by FACS analysis. In kind it is cell-based. Conditions: MB-231, 5 μM, time course to 120 hours. The protocol:
(§6) FIG. 6A depicts an analysis of the breast cancer cell lines MCF-7, MB-468, SK-BR-3, MB-231, T47D and BT549 for an apoptotic effect of 5 μM 3-deazaneplanocin over a time frame of 120 hours. Cell death was measured by FACS analysis. Data presented are the average of three independent experiments.
as §3
(§7) To extend the observation seen in MCF-7 cells, additional breast cancer cell lines were screened, including MB-468, SK-BR-3, MB-231, T47D and BT549. […] To identify the PRC2 target genes associated with the cellular sensitivity to 3-deazaneplanocin, the array analysis was performed in these breast cancer cell lines before and after 3-deazaneplanocin treatment and the expression of the 47 identified PRC2 targets profiled. It was reasoned that some the PRC2 target genes might be differentially expressed between the sensitive and resistant cell lines, which might confer the distinct sensitivity to 3-deazaneplanocin. […] Both the real time and conventional RT-PCR analysis of the 4 gene set confirmed the array data (FIGS. 6D & 6E). […]

Test [8] concerns BT-549 cells. The experiment in a line: Apoptotic response time course by FACS analysis. The format is cell-based. Conditions: BT-549, 5 μM, time course to 120 hours. The protocol: as §6, §3, §7
The subject of test [9] is histone H3 methylation at lysine 9 (H3-K9). The experiment in a line: Western blot of histone H3 lysine 9 methylation. In kind it is cell-based, human. As to conditions: HCT116 or MCF-7 cells, 5 μM, 48 and 72 hours. On the procedure:
as §5

Test [10] concerns PRC2 target genes TGFBI, KRT17, FBXO32, ANXA8, DLX2. The experiment in a line: Real-time RT-PCR of representative PRC2 targets in MCF-7 cells. In kind it is cell-based, human. Background: Real-time PCR tracks product formation cycle by cycle.
Experimental: I: MCF-7 cells were untreated or treated with 3-deazaneplanocin (DZNep), 5-azacytidine (5-AzaC) or a combination of 5-azacytidine and trichostatin A (AZA+TSA), and RNA was isolated for gene expression analysis.
Total RNA was isolated from cell lines using Trizol (Invitrogen) and was converted to cDNA using an RNA Amplification kit (Ambion). […] Quantitative real-time PCR was performed on a PRISM 7900 sequenced detector (Applied Biosystems) using TaqMan probes (Applied Biosystems). Samples were normalized to the levels of 18S ribosomal RNA.
The array results were further confirmed by real-time RT-PCR for representative PRC2 targets.
The test system of test [11] is trimethylation of histone 3 at lysine 27 (H3-K27). The experiment in a line: Western blot of histone H3 lysine 27 trimethylation. In kind it is cell-based, human. Conditions: HCT116 or MCF-7 cells, 5 μM, 48 and 72 hours. On the procedure: as §5

Regarding `Nc1nccc2c1ncn2C1C=C(CO)C(O)C1O` (stereo not drawn) [3-deazaneplanocin, 5-(4-amino-1H-imidazo[4,5-c]pyridin-1-yl)-3-(hydroxymethyl)-3-cyclopentene-1,2-diol], the cell death entry in test [1], in test [2] and in test [3] was “obvious cell death” throughout. In addition, in test [4], the histone acetylation entry is given as “did not affect”. Further, the “mRNA levels of each of the PRC2 proteins (RT-PCR)” value in test [5] is on record as “remained unchanged”. In addition, the “activation of the protease caspase 3” value in test [6] is “activation”. In addition, the “sensitivity to 3-deazaneplanocin-induced cell death” value in test [7] and in test [8] was “highly resistant” throughout. The “histone H3 methylation at lysine 9 (H3-K9)” value in test [9] is on record as “not affected”. Moreover, the “expression of ANXA8 and DLX2 (real-time RT-PCR)” value in test [10] is recorded as “activated”. In test [10], the “induction of TGFBI, KRT17 and FBX032 (real-time RT-PCR)” value is “only induced”. In test [11], the “trimethylation of histone 3 at lysine 27 (H3-K27)” value is “strongly reduced”.
